Experimental data: PMC6199744, “Development of Chemical Proteomics for the Folateome and Analysis of the Kinetoplastid Folateome” (ACS Infectious Diseases, 2018)
Where two headings read alike, the source gives them in different places.

Tested on: T. brucei lysate proteins
Assay type: binding, Trypanosoma brucei
Conditions: vehicle control = 1

NCCOCCOCC(=O)Nc1nc2ncc(CNc3ccc(C(=O)NC(CCC(=O)O)C(=O)O)cc3)nc2c(=O)[nH]1 (stereo not shown) [compound 6]
fold change (protein TB427.06.2550 RNA-BINDING PROTEIN, PUTATIVE): 0.94 | fold change (protein TB427.06.3500 ENDOSOMAL T[…] RME-8, PUTATIVE): 0.83 | fold change (protein TB427.06.3630 SPHINGOSINE 1-PHOSPHATE LYASE, PUTATIVE): 0.95 | fold change (protein TB427.06.3650 ADP-RI[…], PUTATIVE): 0.98 | fold change (protein TB427.06.3670 PAR[…] COMPONENT, PUTATIVE): 0.88 | fold change (protein TB427.06.4890 S-ADENOSYL[…], PUTATIVE): 1.19 | fold change (protein TB427.06.700 ALANYL-TRNA SYNTHETASE, PUTATIVE): 0.97 | fold change vs vehicle control (protein TB427.07.1300 PROTEIN DISULFIDE ISOMERASE, PUTATIVE): 1.37 | fold change (protein TB427.07.2340 40S RIBOSOMAL PROTEIN S15, PUTATIVE): 0.89 | fold change (protein TB427.07.2770 HY[…], CONSERVED): 0.86 | fold change (protein TB427.07.3530 HY[…], CONSERVED): 0.98 | fold change (protein TB427.07.3980 IMMU[…], PUTATIVE): 0.79 | fold change vs vehicle control (protein TB427.07.4170 FATTY ACID ELONGASE, PUTATIVE): 0.97 | fold change (protein TB427.07.4180 FATTY ACID ELONGASE, PUTATIVE): 0.95 | fold change (protein TB427.07.4970 GLUTAMINE SYNTHETASE, PUTATIVE): 0.85 | fold change (protein TB427.07.7070 HY[…], CONSERVED): 0.92 | fold change vs vehicle control (protein TB427.07.7500 THYMINE-7-HYDROXYLASE, PUTATIVE): 0.35 | fold change (protein TB427.08.2060 HY[…], CONSERVED): 0.87 | fold change (protein TB427.08.2080 HY[…], CONSERVED): 1.19 | fold change (protein TB427.08.3490 HY[…], CONSERVED): 0.98 | fold change (protein TB427.08.3530 GLYCEROL-3-PHOSPHATE DEH[…]+], GLYCOSOMAL): 1 | fold change vs vehicle control (protein TB427.08.3660 PROTEIN TRANSPORT PROTEIN SEC23): 0.99 | fold change vs vehicle control (protein TB427.08.3750 NUCLEOLAR PROTEIN, PUTATIVE): 0.96 | fold change (protein TB427.08.3870 HY[…], CONSERVED): 0.99 | fold change (protein TB427.08.4210 HY[…], CONSERVED): 1.19 | fold change (protein TB427.08.650 CATION-TR[…], PUTATIVE): 0.94 | fold change (protein TB427.10.10020 HY[…], CONSERVED): 0.97 | fold change (protein TB427.10.10350 PROTEIN KINASE, PUTATIVE): 0.86 | fold change (protein TB427.10.10360 MICROTUBULE-[…], PUTATIVE): 0.85 | fold change vs vehicle control (protein TB427.10.10610 PROTEIN TYROSINE PHOSPHATASE, PUTATIVE): 1.7 | fold change vs vehicle control (protein TB427.10.1100 60S RIBOSOMAL PROTEIN L9, PUTATIVE): 1.14 | fold change vs vehicle control (protein TB427.10.12510 P-TYPE H+-ATPASE, PUTATIVE): 1.28 | fold change (protein TB427.10.12710 HEAT SHOCK PROTEIN, PUTATIVE): 1.53 | fold change vs vehicle control (protein TB427.10.14470 INTR[…] PROTEIN IFT140, PUTATIVE): 1.46 | fold change (protein TB427.10.1450 HY[…], CONSERVED): 0.97 | fold change vs vehicle control (protein TB427.10.14550 ATP-DEPENDENT DEAD/H RNA HELICASE, PUTATIVE): 1.1 | fold change vs vehicle control (protein TB427.10.14930 HY[…], CONSERVED): 0.95 | fold change vs vehicle control (protein TB427.10.14950 RNA BINDING PROTEIN, PUTATIVE): 0.98 | fold change (protein TB427.10.14990 INTR[…] PROTEIN IFT80/CHE2, PUTATIVE): 1.1 | fold change (protein TB427.10.15720 […]-ATP-ASE SUBUNIT 9): 0.84 | fold change (protein TB427.10.2020 HEXOKINASE): 1.29 | fold change (protein TB427.10.2290 CHAPERONE PROTEIN DNAJ, PUTATIVE): 0.86 | fold change (protein TB427.10.2440 METACASPASE MCA4): 0.89 | fold change vs vehicle control (protein TB427.10.3470 HY[…], CONSERVED): 1.1 | fold change vs vehicle control (protein TB427.10.5810 HY[…], CONSERVED): 1.81 | fold change (protein TB427.10.6150 […]/BEIGE PROTEIN, PUTATIVE): 0.67 | fold change (protein TB427.10.6310 MAJOR VAULT PROTEIN, PUTATIVE): 0.93 | fold change (protein TB427.10.730 ATP SYNTHASE, PUTATIVE): 0.83 | fold change vs vehicle control (protein TB427.10.7620 MIT[…]-DEPENDENT ZINC METALLOPEPTIDASE, PUTATIVE): 0.98 | fold change vs vehicle control (protein TB427.10.8230 PROTEIN DISULFIDE ISOMERASE): 1.84 | fold change (protein TB427.10.8910 HY[…], CONSERVED): 0.91 | fold change vs vehicle control (protein TB927.10.13290 ETHANOLAMINE PHOSPHOTRANSFERASE (EPT)): 1.14 | fold change vs vehicle control (protein TB927.10.13780 GLYCOGEN SYNTHASE KINASE 3): 0.99 | fold change vs vehicle control (protein TB927.10.14980 INTR[…] PROTEIN IFT52, PUTATIVE): 1.23 | fold change vs vehicle control (protein TB927.10.2640 INTR[…] PROTEIN IFT81, PUTATIVE): 0.98 | fold change vs vehicle control (protein TB927.10.2890 ENOLASE): 1.58 | fold change (protein TB927.10.2980 […]-ATPASE SUBUNIT 11): 0.89 | fold change (protein TB927.10.3990 DHH1): 1.1 | fold change (protein TB927.10.4180 TFIIF-[…] PHOSPHATASE, PUTATIVE): 1 | fold change vs vehicle control (protein TB927.10.4570 […] 2): 1.74 | fold change (protein TB927.10.5370 40S RIBOSOMAL PROTEIN S10, PUTATIVE): 0.89 | fold change (protein TB927.10.5500 HY[…], CONSERVED): 0.92 | fold change vs vehicle control (protein TB927.10.560 40S RIBOSOMAL PROTEINS S11, PUTATIVE): 1.25 | fold change (protein TB927.10.6050 CLATHRIN HEAVY CHAIN): 0.85 | fold change (protein TB927.10.7090 A[…]): 1.37 | fold change vs vehicle control (protein TB927.10.8940 HY[…], CONSERVED): 0.88 | fold change (protein TB927.2.2770 HY[…] TB927 2 2770): 1.1 | fold change (protein TB927.2.3800 MRNA […], PUTATIVE): 0.69 | fold change (protein TB927.3.1240 PROTEIN PHOSPHATASE 2A, PUTATIVE): 0.98 | fold change vs vehicle control (protein TB927.3.2960 INOSINE-ADENOSINE-GUANOSINE-[…]): 1.36 | fold change (protein TB927.3.3270 ATP-DEPENDENT PHOSPHOFRUCTOKINASE): 0.93 | fold change vs vehicle control (protein TB927.3.3450 ADP-RI[…]-LIKE PROTEIN 3A, PUTATIVE): 2.16 | fold change vs vehicle control (protein TB927.3.3490 HIGH MOBILITY GROUP PROTEIN, PUTATIVE): 1.55 | fold change (protein TB927.3.3780 TRYPAREDOXIN): 0.94 | fold change vs vehicle control (protein TB927.3.5120 HY[…], CONSERVED (Ankyrin repeats (3 copies), putative)): 1.38 | fold change vs vehicle control (protein TB927.3.740 HY[…], CONSERVED): 0.97 | fold change vs vehicle control (protein TB927.4.2740 HY[…], CONSERVED (p25-alpha, putative)): 1.55 | fold change (protein TB927.4.3590 T[…] 1-BETA, PUTATIVE): 1.46 | fold change vs vehicle control (protein TB927.4.3820 HY[…], CONSERVED): 0.99 | fold change (protein TB927.4.5310 SERINE/THREONINE-PROTEIN KINASE A, PUTATIVE): 0.95 | fold change (protein TB927.5.1630 HY[…], CONSERVED): 0.86 | fold change (protein TB927.5.3220 SIGNAL PEPTIDASE TYPE I, PUTATIVE): 0.87 | fold change vs vehicle control (protein TB927.5.4440 DYNEIN LIGHT CHAIN, PUTATIVE): 0.98 | fold change (protein TB927.6.2200 HY[…], CONSERVED): 1 | fold change vs vehicle control (protein TB927.7.1750 60S RIBOSOMAL PROTEIN L7, PUTATIVE): 1.31 | fold change (protein TB927.7.2140 HY[…]): 0.83 | fold change vs vehicle control (protein TB927.7.4470 HY[…], CONSERVED): 1.18 | fold change vs vehicle control (protein TB927.7.7430 ATP SYNTHASE ALPHA CHAIN, MIT[…]): 1.18 | fold change (protein TB927.8.1510 ATP-DEPENDENT DEAD/H RNA HELICASE, PUTATIVE): 0.96 | fold change (protein TB927.8.1990 PEROXIDOXIN): 0.97 | fold change (protein TB927.8.4770 SMALL GTP-BINDING PROTEIN RAB18): 0.96
